Reference: patent US12692477B2, “Medium composition for culturing porcine pluripotent stem cells” (SPACE F CORP., priority 2018, dated 2026)

Columns and labels:
[1] = test system: porcine pluripotent stem cells; assay: Influence of growth factor concentration in porcine pluripotent stem cell culture medium; assay type: cell-based; conditions: for Optimal concentration / optimal concentration: in culture medium
Description: The influence of a growth factor concentration in a porcine pluripotent stem cell culture medium established in the above-described example was analyzed, and the results are shown in Table 10. When the concentration of growth factors was low, the growth of stem cells was reduced, and when the concentration of growth factor was high, except for bFGF, cells were killed. The allowable concentration of the bFGF was 3.03×10^−4 to 6.06×10^−3 μM, and the optimal concentration was 1.21×10^−3 μM. The allowable concentration of the Activin A was 1.50×10^−4 to 5.40×10^−4 μM, and the optimal concentration was 3.85×10^−4 μM. The allowable concentration of the CHIR99021 was 0.5 to 2.50 μM, and the optimal concentration was 1.50 μM. The allowable concentration of the IWR-1 was 1.20 to 3.00 μM, and the optimal concentration was 2.50 μM.

[2] = test system: porcine blastocysts (inner cell mass); assay: Culture of porcine blastocysts on feeder cells with signal molecule combinations in serum replacement medium; assay type: cell-based
Description: First, a culture medium including KSR, N2/B27, KSR+N2/B27, or KSR+LC was used to find a serum replacement suitable for the growth of porcine embryos. […] As a result, it was confirmed that the inner cell mass expressing SOX2 rapidly grew in the group treated with KSR and KSR+LC (FIG. 1). Second, for long-term culturing of the inner cell mass, signal molecules were treated in various combinations (Table 6 and Table 7).
The culturing was attempted by adding signal molecules to basal medium including KSR or KSR+LC. Porcine embryonic stein cells were established in a culture medium including FGF2, A, and 6-[[2-[[4-(2,4-Dichlorophenyl)-5-(5-methyl-1H-imidazol-2-yl)-2-pyrimidinyl]amino]ethyl]amino]-3-pyridinecarbonitrile (CHIR99021) in a culture solution including serum replacement 4 (Tables 6 and 7, FIG. 2). In addition, for the stabilization of CHIR99021, 4-(1,3,3a,4,7,7a-Hexahydro-1,3-dioxo-4,7-methano-2H-isoindol-2-yl)-N-8-quinolinyl-Benzamide (IWR-1) was added to establish the composition for long-term culturing and maintenance of porcine embryonic stem cells, as shown in Table 8 and Table 9, respectively.

Molecule	Optimal concentration [1] [mM]	optimal concentration [1] [µM]	Blastocyst initial growth rate (%) ([2]; serum replacement 1)	Sox2 positive rate of the initial population (%) ([2]; serum replacement 1)	Number of embryonic stem cell lines established in the long-term culture ([2]; serum replacement 1, 30 blastocysts)	Blastocyst initial growth rate (%) ([2]; serum replacement 4)	Sox2 positive rate of the initial population (%) ([2]; serum replacement 4)	Number of embryonic stem cell lines established in the long-term culture ([2]; serum replacement 4, 29 blastocysts)	Symptoms when exceeding the appropriate concentration [1]
Cc1cnc(-c2cnc(NCCNc3ccc(C#N)cn3)nc2-c2ccc(Cl)cc2Cl)[nH]1 [CHIR99021, 6-[[2-[[4-(2,4-Dichlorophenyl)-5-(5-methyl-1H-imidazol-2-yl)-2-pyrimidinyl]amino]ethyl]amino]-3-pyridinecarbonitrile, reference compound]	0.0015	1.50							
O=C(Nc1cccc2cccnc12)c1ccc(N2C(=O)C3C4C=CC(C4)C3C2=O)cc1 (stereo not drawn) [IWR-1, 4-(1,3,3a,4,7,7a-Hexahydro-1,3-dioxo-4,7-methano-2H-isoindol-2-yl)-N-8-quinolinyl-Benzamide, reference compound]	0.0025	2.50							
bFGF: basic fibroblast growth factor, signal molecule in the culture medium	1.21e-06	0.00121	30.0 ± 5.8	30.0 ± 5.8	0	51.5 ± 4.6	44.8 ± 2.9	0	
activin A: activin A, signal molecule acting through the SMAD signal transduction system (protein, UniProt P08476 311-426, looked up) Inhibin beta A chain: GLECDGKVNICCKKQFFVSFKDIGWNDWIIAPSGYHANYCEGECPSHIAGTSGSSLSFHSTVINHYRMRGHSPFANLKSCCVPTKLRPMSMLYYDDGQNIIKKDIQNMIVEECGCS	3.85e-07	0.000385							Cell death
